Experimental data from patent US12685733B2, “Indole molecules and use thereof in the inhibition of DNA polymerases” (BioVentures, LLC, priority 2019, dated 2026).

Biological target: T1, hRev1 (Homo sapiens, UniProt Q9UBZ9)
T1 construct: hRevl (residues 330-833); made in house
T1 sequence (Q9UBZ9 330-833): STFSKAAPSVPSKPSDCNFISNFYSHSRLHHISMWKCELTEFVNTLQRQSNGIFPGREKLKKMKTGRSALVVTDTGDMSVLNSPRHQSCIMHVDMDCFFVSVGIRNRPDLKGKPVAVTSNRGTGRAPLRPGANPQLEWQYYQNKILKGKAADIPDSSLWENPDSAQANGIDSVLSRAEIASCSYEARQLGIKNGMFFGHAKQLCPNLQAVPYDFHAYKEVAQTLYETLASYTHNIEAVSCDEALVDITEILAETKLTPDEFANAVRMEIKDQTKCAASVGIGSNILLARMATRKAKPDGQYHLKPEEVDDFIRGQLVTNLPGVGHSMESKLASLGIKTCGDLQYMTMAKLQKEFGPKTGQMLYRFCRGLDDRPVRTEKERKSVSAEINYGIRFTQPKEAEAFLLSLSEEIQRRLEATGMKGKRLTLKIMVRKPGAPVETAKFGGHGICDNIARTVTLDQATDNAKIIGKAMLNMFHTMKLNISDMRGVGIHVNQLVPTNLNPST
Assay: Gel-based primer extension assay
Type: biochemical
Details: 10 μM; 10 nM Rev1

Structure (SMILES): Cl.[H]/N=C(\N)NN=Cc1cn(C(=O)c2cccc3ccccc23)c2ccc(Cl)cc12 [IAG-10, (E)-2-((1-(1-naphthoyl)-5-chloro-1H-indol-3-y1)methylene)hydrazine-1-carboximidamide hydrochloride]
- polymerase activity relative to DMSO control: only hpol κ was inhibited
